# Values joined by “and” are separate entries in the source; they are usually repeats but may differ in a detail not shown here. Equal values may be shown once. Read-outs that look alike come from different tables or passages of the source.
# Legend:
# [1] = biological target: T1, Phe223Ala MTHFR (Escherichia coli, UniProt P0AEZ1, F223A); experiment: Reductive half-reaction with NADH, stopped-flow; assay type: biochemical
# [2] = tested on: HpaC; conditions: read-out: Km for NADH; 30 °C; cited from earlier work
# [3] = tested on: PheA2; conditions: read-out: Km for NADH; 53 °C; cited from earlier work
# [4] = biological target: T2, Phe223Leu MTHFR (Escherichia coli, UniProt P0AEZ1, F223L); experiment: NADH-menadione oxidoreductase assay, steady-state; assay type: biochemical
# [5] = biological target: T2, Phe223Leu MTHFR; experiment: Reductive half-reaction with NADH, stopped-flow; assay type: biochemical
# [6] = tested on: wild-type MTHFR; conditions: 25 °C, pH 7.2; cited from earlier work
# [7] = biological target: T1, Phe223Ala MTHFR; experiment: NADH-menadione oxidoreductase assay, steady-state; assay type: biochemical; conditions: […] μM menadione, varying NADH, 25 °C, pH 7.2
# [8] = tested on: wild-type MTHFR; conditions: 25 °C, pH 7.2, cited from earlier work
# [9] = biological target: T2, Phe223Leu MTHFR; experiment: NADPH binding; conditions: data not shown
# [10] = tested on: wild-type MTHFR; conditions: 25 °C, cited from earlier work
# [11] = biological target: T2, Phe223Leu MTHFR; experiment: Oxidative half-reaction with CH2-H4folate, stopped-flow; assay type: biochemical
# [12] = biological target: T1, Phe223Ala MTHFR; experiment: as above; assay type: biochemical
# [13] = biological target: T2, Phe223Leu MTHFR; experiment: NADH-CH2-H4folate oxidoreductase assay, steady-state; assay type: biochemical
# [14] = tested on: wild-type MTHFR; conditions: 25 °C, pH 7.2, cited from earlier work; remark: listed apart in the source
# [15] = biological target: T1, Phe223Ala MTHFR; experiment: NADH-CH2-H4folate oxidoreductase assay, steady-state
# [16] = biological target: T1, Phe223Ala MTHFR; experiment: Reaction of reduced enzyme with menadione, stopped-flow; assay type: biochemical; conditions: […] μM menadione, within dead time of the instrument, data not shown
# [17] = biological target: T2, Phe223Leu MTHFR; experiment: as above; assay type: biochemical; conditions: […] μM menadione, within dead time of the instrument, data not shown
# [18] = 25 °C, pH 7.2, anaerobic, 450 nm
compound,measurement,setting,value
NADH,k2’ maximal observed rate constant for reduction,[1]; [18],40 ± 2 s⁻¹
same,change in standard free binding energy for NADH,"[1]; at 298 K, from 40-fold increase in Kd",2.2 kcal/mol
same,Km,[2],36.8 µM
same,Km,[3],8.8 µM
same,increase in Km for NADH compared to wild-type,[4],7 fold
same,kcat,"[4]; […] μM menadione, varying NADH, 25 °C, pH 7.2",31 ± 4 s⁻¹
same,increase in Kd for NADH over wild-type enzyme,[5],14 fold
same,k2’ maximal observed rate constant for reduction,[5]; [18],35 ± 1 s⁻¹
same,kcat,[6],55 ± 8.3 s⁻¹
same,kcat,[7],22 ± 4 s⁻¹
same,k2’,[8],55 ± 6 s⁻¹
same,Kd,[8]; read-out: Kd for NADH,32 ± 5 µM
NADPH,ability to bind NADPH,[9],no ability to bind NADPH
"Nc1nc2c(c(=O)[nH]1)N1CN(c3ccc(C(=O)N[C@@H](CCC(=O)O)C(=O)O)cc3)C[C@H]1CN2 [CH2-H4folate, 5,10-methylenetetrahydrofolate]","k5’, slow phase","[10]; pH 7.2, slow phase",10.3 ± 1.0 ^e s^−1
same,Kd,"[10]; read-out: Kd for CH2-H4folate, pH 7.2",11 ± 1 µM
same,Kd,[11],9 ± 2 µM
same,increase in rate of oxidation compared to slow phase of wild-type enzyme,[11],3 fold
same,Kd,[12],500 ± 230 µM
same,change in standard free binding energy for CH2-H4folate,[12],2.3 kcal/mol
same,decrease in affinity for CH2-H4folate compared to wild-type,[12],45 fold
same,slower rate of oxidation compared to slow phase of wild-type,[12],2 fold
same,"k5’ maximal rate constant, slow phase","[12]; 25 °C, pH 7.2, anaerobic, slow phase (~16% of absorbance change)",4.5 ± 1.1 ^e s^−1
same,Ki,[13],160 ± 27 µM
same,CH2-H4folate concentration above which inhibition was seen,[13]; 1000 μM NADH,exceeding 100 μM
same,theoretical turnover number calculated from the two half-reactions,"[13]; eq 8, ping-pong bi-bi",17 s⁻¹
same,kcat,[14],10.4 ± 1.0 s⁻¹
same,Ki,[14]; read-out: Ki for CH2-H4folate,320 ± 25 µM
same,Km,[14]; read-out: Km for CH2-H4folate,0.5 ± 0.1 µM
same,decrease in kcat compared to wild-type,[15],4 fold
same,kcat,"[15]; anaerobic, 25 °C, pH 7.2",2.9 s⁻¹ and 2.9 ± 0.5 s⁻¹
same,theoretical turnover number calculated from the two half-reactions,"[15]; eq 9, slow phase of oxidation",4.0 s⁻¹
CC1=CC(=O)c2ccccc2C1=O [menadione],time of reaction of reduced enzyme with menadione,[16],≤ 3 ms
same,time of reaction of reduced enzyme with menadione,[17],≤ 3 ms
